Measured values taken from article PMC11864979, “First-in-class ultralong-target-residence-time p38α inhibitors as a mitosis-targeted therapy for colorectal cancer” (Nature Cancer, 2025).
Like-named read-outs stand apart in the source and are kept apart here.

Key:
Assay in all cases: selectivity profiling in a panel of 340 wild-type kinases (Reaction Biology Europe)
Type in all cases: binding
340 wild-type kinases [1] = molecular target: T1, 340 wild-type kinases (Homo sapiens, UniProt Q00537)
T1 construct: purchased Reaction Biology Europe
T1 sequence (Q00537 whole entry): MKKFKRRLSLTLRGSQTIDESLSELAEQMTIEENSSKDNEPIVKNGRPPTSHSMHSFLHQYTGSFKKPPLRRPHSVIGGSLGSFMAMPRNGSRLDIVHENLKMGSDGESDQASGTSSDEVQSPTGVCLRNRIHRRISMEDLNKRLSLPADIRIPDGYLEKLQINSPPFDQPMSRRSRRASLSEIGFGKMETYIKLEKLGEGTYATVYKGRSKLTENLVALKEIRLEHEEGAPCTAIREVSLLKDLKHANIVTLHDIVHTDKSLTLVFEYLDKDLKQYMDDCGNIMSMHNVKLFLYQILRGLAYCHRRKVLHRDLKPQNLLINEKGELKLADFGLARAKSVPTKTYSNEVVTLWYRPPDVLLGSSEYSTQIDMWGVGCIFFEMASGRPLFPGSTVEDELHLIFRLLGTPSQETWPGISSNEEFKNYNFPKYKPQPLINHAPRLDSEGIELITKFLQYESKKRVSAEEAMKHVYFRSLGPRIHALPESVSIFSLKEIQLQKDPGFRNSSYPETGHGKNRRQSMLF

340 wild-type kinases [2] = molecular target: T2, 340 wild-type kinases (Homo sapiens, UniProt Q13554)
T2 construct: purchased Reaction Biology Europe

340 wild-type kinases [3] = molecular target: T3, 340 wild-type kinases (Homo sapiens, UniProt P27361)
T3 construct: purchased Reaction Biology Europe
T3 sequence (P27361 whole entry): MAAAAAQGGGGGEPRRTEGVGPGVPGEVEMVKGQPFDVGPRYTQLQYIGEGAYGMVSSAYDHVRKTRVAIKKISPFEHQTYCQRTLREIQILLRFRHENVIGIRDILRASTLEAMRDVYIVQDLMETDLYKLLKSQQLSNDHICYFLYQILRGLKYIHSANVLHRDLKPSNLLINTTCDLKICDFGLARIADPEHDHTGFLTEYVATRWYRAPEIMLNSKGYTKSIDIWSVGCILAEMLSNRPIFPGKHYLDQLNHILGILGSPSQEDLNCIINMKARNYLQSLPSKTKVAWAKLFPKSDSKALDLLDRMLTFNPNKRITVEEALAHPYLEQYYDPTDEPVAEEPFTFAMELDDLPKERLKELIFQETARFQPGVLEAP

340 wild-type kinases [4] = molecular target: T4, 340 wild-type kinases (Homo sapiens, UniProt P42680)
T4 construct: purchased Reaction Biology Europe
T4 sequence (P42680 1-631): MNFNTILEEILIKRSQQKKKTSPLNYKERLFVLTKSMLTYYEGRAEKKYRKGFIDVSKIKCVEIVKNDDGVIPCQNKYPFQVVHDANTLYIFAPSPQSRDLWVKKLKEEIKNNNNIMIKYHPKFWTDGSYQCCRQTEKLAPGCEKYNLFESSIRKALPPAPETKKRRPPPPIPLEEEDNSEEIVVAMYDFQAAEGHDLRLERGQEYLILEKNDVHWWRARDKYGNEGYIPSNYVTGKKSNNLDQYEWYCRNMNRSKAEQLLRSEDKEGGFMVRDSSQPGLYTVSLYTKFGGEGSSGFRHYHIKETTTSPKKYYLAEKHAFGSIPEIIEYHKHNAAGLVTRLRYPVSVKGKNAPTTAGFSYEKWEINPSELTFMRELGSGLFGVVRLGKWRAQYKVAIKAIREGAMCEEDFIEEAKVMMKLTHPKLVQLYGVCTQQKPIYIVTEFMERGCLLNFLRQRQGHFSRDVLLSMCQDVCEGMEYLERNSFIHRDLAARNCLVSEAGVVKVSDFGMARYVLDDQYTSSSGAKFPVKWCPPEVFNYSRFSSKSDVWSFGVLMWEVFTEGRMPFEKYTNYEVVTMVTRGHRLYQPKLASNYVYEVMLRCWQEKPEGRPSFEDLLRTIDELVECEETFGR

340 wild-type kinases [5] = molecular target: T5, 340 wild-type kinases (Homo sapiens, UniProt P57059)
T5 construct: purchased Reaction Biology Europe
T5 sequence (P57059 whole entry): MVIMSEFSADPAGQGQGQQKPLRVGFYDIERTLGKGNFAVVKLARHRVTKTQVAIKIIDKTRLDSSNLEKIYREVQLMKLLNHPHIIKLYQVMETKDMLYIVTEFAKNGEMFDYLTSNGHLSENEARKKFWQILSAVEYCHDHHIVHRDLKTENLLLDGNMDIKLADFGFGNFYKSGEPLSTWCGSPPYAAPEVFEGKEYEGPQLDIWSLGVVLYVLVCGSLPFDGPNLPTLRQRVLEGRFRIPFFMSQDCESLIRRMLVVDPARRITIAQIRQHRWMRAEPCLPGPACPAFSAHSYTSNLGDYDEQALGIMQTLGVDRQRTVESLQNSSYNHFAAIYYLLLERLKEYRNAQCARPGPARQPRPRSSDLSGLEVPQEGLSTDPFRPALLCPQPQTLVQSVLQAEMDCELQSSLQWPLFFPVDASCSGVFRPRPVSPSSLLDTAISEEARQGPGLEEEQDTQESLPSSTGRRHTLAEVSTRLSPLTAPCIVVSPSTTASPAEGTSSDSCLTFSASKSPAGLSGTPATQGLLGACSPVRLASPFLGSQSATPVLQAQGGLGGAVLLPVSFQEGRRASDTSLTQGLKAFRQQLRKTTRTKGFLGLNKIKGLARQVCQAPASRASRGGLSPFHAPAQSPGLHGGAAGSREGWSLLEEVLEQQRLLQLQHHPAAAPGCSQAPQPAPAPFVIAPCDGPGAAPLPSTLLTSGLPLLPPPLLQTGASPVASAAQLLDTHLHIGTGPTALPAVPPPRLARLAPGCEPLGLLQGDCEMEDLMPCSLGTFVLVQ

340 wild-type kinases [6] = molecular target: T6, 340 wild-type kinases (Homo sapiens, UniProt O14757)
T6 construct: purchased Reaction Biology Europe
T6 sequence (O14757 1-476): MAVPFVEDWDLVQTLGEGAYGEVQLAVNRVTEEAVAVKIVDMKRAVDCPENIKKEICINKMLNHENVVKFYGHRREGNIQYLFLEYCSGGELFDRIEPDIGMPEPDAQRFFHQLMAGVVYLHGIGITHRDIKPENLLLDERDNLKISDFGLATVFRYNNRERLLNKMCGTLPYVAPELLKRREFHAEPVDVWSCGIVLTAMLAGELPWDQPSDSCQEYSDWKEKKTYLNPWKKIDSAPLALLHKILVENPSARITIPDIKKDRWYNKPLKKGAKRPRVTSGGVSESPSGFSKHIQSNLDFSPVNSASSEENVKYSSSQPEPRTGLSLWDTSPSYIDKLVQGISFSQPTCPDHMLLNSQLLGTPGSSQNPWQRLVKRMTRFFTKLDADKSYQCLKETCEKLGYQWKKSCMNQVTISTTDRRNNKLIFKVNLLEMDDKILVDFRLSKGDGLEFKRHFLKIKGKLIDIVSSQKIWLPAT

340 wild-type kinases [7] = molecular target: T7, 340 wild-type kinases (Homo sapiens, UniProt Q9BQI3)
T7 construct: purchased Reaction Biology Europe
T7 sequence (Q9BQI3 whole entry): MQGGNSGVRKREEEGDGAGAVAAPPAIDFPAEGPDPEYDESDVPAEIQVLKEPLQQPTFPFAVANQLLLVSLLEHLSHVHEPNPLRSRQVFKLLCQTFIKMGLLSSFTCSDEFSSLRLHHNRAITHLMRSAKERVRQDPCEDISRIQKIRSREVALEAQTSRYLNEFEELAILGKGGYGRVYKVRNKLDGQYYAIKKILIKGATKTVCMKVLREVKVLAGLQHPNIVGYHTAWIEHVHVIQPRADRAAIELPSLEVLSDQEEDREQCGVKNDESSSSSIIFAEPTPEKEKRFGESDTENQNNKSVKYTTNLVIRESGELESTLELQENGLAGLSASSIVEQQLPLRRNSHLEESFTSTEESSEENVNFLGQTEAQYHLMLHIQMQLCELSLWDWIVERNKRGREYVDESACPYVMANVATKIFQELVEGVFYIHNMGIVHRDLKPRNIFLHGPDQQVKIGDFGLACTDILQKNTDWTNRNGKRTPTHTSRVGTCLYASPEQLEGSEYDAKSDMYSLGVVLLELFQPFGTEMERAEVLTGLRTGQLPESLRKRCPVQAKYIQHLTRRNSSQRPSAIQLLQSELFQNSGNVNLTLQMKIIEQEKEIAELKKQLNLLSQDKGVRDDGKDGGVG

340 wild-type kinases [8] = molecular target: T8, 340 wild-type kinases (Homo sapiens, UniProt Q00535)
T8 construct: purchased Reaction Biology Europe
T8 sequence (Q00535 whole entry): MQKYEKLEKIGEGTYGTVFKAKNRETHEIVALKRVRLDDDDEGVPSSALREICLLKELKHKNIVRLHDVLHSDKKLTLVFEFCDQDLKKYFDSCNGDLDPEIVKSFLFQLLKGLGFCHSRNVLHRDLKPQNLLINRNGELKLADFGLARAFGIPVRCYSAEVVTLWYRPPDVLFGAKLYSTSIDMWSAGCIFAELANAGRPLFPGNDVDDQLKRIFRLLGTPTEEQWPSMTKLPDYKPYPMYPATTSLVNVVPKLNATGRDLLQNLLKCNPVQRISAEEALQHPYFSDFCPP

340 wild-type kinases [9] = molecular target: T9, 340 wild-type kinases (Homo sapiens, UniProt P24941)
T9 construct: purchased Reaction Biology Europe

340 wild-type kinases [10] = molecular target: T10, 340 wild-type kinases (Homo sapiens, UniProt P24723)
T10 construct: purchased Reaction Biology Europe
T10 sequence (P24723 whole entry): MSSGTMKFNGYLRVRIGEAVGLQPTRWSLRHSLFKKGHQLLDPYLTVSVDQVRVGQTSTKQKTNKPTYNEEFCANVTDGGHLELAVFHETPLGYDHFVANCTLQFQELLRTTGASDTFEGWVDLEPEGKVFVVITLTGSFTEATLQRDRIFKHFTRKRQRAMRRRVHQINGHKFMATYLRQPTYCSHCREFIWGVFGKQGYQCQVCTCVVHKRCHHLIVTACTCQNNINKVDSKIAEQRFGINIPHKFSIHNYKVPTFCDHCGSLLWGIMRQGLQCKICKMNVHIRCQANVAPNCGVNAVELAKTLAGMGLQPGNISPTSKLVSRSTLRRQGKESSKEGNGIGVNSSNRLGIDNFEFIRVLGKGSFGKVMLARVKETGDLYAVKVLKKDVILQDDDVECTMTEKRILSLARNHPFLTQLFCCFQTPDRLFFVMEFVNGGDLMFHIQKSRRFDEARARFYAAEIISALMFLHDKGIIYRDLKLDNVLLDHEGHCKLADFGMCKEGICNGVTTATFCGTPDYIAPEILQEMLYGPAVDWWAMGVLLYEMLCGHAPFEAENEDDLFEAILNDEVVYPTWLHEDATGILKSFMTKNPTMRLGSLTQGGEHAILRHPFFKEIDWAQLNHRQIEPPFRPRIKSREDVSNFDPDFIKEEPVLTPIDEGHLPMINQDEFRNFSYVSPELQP

340 wild-type kinases [11] = molecular target: T11, 340 wild-type kinases (Homo sapiens, UniProt P04629)
T11 construct: purchased Reaction Biology Europe
T11 sequence (P04629 33-796): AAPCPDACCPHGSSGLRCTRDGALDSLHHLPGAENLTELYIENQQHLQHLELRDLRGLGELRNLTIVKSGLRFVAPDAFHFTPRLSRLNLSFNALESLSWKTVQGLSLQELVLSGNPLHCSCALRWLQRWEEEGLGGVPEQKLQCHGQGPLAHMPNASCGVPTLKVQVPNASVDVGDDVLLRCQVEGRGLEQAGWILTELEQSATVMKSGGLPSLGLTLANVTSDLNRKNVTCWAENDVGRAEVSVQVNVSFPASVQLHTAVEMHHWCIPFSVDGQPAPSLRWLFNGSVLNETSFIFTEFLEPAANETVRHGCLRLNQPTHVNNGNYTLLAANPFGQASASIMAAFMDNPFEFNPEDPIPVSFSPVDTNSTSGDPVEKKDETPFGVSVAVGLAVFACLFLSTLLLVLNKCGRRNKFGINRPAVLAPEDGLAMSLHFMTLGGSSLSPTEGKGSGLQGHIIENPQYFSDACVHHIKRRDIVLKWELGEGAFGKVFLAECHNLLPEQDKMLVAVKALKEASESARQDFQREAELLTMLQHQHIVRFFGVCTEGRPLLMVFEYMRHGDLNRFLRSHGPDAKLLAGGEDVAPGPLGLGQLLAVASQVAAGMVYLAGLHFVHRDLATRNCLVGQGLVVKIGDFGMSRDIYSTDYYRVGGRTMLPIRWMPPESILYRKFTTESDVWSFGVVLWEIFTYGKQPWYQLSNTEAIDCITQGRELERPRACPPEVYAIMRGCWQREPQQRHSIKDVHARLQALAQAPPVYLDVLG

340 wild-type kinases [12] = molecular target: T12, 340 wild-type kinases (Homo sapiens, UniProt Q16620)
T12 construct: purchased Reaction Biology Europe
T12 sequence (Q16620 32-822): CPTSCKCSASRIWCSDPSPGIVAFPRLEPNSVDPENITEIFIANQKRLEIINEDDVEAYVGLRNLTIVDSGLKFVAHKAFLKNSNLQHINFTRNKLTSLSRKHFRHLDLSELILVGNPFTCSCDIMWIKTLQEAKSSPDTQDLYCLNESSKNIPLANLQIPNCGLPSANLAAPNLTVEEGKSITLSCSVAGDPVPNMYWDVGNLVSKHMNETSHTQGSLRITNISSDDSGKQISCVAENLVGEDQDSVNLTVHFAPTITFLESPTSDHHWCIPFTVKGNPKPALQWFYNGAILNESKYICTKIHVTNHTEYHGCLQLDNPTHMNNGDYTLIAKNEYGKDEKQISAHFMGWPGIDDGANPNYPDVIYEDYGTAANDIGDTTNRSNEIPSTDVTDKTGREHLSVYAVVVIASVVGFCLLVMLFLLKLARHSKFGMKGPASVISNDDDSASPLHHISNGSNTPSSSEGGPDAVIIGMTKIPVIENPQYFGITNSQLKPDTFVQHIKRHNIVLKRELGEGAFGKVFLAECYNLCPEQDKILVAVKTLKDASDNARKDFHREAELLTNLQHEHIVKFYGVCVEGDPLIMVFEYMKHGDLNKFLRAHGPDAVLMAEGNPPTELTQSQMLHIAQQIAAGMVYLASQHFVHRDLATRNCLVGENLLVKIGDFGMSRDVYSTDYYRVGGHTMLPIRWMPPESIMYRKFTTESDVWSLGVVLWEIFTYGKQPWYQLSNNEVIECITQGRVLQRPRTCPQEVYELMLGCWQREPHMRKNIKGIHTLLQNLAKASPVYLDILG

SMILES: CNC(=O)c1ccc2c(c1)C(=O)c1ccc(Nc3ccc(F)c(NC(=O)C4CC4)c3)cc1CC2 [Compound 2015]
- remaining activity at 0.2 µM (340 wild-type kinases [1]; 0.2 µM 2015, read-out: CDK17/p35NCK residual activity): 94.8%
- remaining activity at 1 µM (340 wild-type kinases [1]; 1 µM 2015, read-out: CDK17/p35NCK residual activity): 93.6%
- remaining activity at 1 µM (340 wild-type kinases [1]; CDK17/p35NCK, 1 µM, read-out: residual activity): 93.6%
- remaining activity at 0.2 µM (340 wild-type kinases [2]; 0.2 µM 2015, read-out: CAMK2B residual activity): 112%
- remaining activity at 1 µM (340 wild-type kinases [2]; 1 µM 2015, read-out: CAMK2B residual activity): 89%
- remaining activity at 0.2 µM (340 wild-type kinases [2]; CAMK2B, 0.2 µM, read-out: residual activity): 112%
- remaining activity at 1 µM (340 wild-type kinases [2]; CAMK2B, 1 µM, read-out: residual activity): 89%
- remaining activity at 1 µM (340 wild-type kinases [3]; 1 µM 2015, read-out: ERK1 residual activity): 104%
- remaining activity at 0.2 µM (340 wild-type kinases [3]; ERK1, 0.2 µM, read-out: residual activity): 108%
- remaining activity at 1 µM (340 wild-type kinases [3]; ERK1, 1 µM, read-out: residual activity): 104%
- remaining activity at 0.2 µM (340 wild-type kinases [4]; 0.2 µM 2015, read-out: TEC residual activity): 120%
- remaining activity at 1 µM (340 wild-type kinases [4]; 1 µM 2015, read-out: TEC residual activity): 108%
- remaining activity at 0.2 µM (340 wild-type kinases [4]; TEC, 0.2 µM, read-out: residual activity): 120%
- remaining activity at 1 µM (340 wild-type kinases [4]; TEC, 1 µM, read-out: residual activity): 108%
- remaining activity at 0.2 µM (340 wild-type kinases [5]; 0.2 µM 2015, read-out: SIK1 residual activity): 90.9%
- remaining activity at 1 µM (340 wild-type kinases [5]; 1 µM 2015, read-out: SIK1 residual activity): 85.5%
- remaining activity at 0.2 µM (340 wild-type kinases [5]; SIK1, 0.2 µM, read-out: residual activity): 90.9%
- remaining activity at 1 µM (340 wild-type kinases [5]; SIK1, 1 µM, read-out: residual activity): 85.5%
- remaining activity at 0.2 µM (340 wild-type kinases [6]; 0.2 µM 2015, read-out: CHK1 residual activity): 88.2%
- remaining activity at 1 µM (340 wild-type kinases [6]; 1 µM 2015, read-out: CHK1 residual activity): 87.9%
- remaining activity at 0.2 µM (340 wild-type kinases [6]; CHK1, 0.2 µM, read-out: residual activity): 88.2%
- remaining activity at 1 µM (340 wild-type kinases [6]; CHK1, 1 µM, read-out: residual activity): 87.8%
- remaining activity at 0.2 µM (340 wild-type kinases [7]; 0.2 µM 2015, read-out: HRI residual activity): 75%
- remaining activity at 1 µM (340 wild-type kinases [7]; 1 µM 2015, read-out: HRI residual activity): 93.7%
- remaining activity at 0.2 µM (340 wild-type kinases [7]; HRI, 0.2 µM, read-out: residual activity): 75%
- remaining activity at 1 µM (340 wild-type kinases [7]; HRI, 1 µM, read-out: residual activity): 93.7%
- remaining activity at 0.2 µM (340 wild-type kinases [8]; 0.2 µM 2015, read-out: CDK5/p25NCK residual activity): 110%
- remaining activity at 0.2 µM (340 wild-type kinases [8]; 0.2 µM 2015, read-out: CDK5/p35NCK residual activity): 114%
- remaining activity at 1 µM (340 wild-type kinases [8]; 1 µM 2015, read-out: CDK5/p25NCK residual activity): 100%
- remaining activity at 1 µM (340 wild-type kinases [8]; 1 µM 2015, read-out: CDK5/p35NCK residual activity): 103%
- remaining activity at 0.2 µM (340 wild-type kinases [8]; CDK5/p25NCK, 0.2 µM, read-out: residual activity): 110%
- remaining activity at 1 µM (340 wild-type kinases [8]; CDK5/p25NCK, 1 µM, read-out: residual activity): 100%
- remaining activity at 0.2 µM (340 wild-type kinases [8]; CDK5/p35NCK, 0.2 µM, read-out: residual activity): 114%
- remaining activity at 1 µM (340 wild-type kinases [8]; CDK5/p35NCK, 1 µM, read-out: residual activity): 103%
- remaining activity at 0.2 µM (340 wild-type kinases [9]; 0.2 µM 2015, read-out: CDK2/CycA2 residual activity): 92.5%
- remaining activity at 0.2 µM (340 wild-type kinases [9]; 0.2 µM 2015, read-out: CDK2/CycD1 residual activity): 90.3%
- remaining activity at 0.2 µM (340 wild-type kinases [9]; 0.2 µM 2015, read-out: CDK2/CycE1 residual activity): 121%
- remaining activity at 1 µM (340 wild-type kinases [9]; 1 µM 2015, read-out: CDK2/CycA2 residual activity): 87.2%
- remaining activity at 1 µM (340 wild-type kinases [9]; 1 µM 2015, read-out: CDK2/CycD1 residual activity): 96.5%
- remaining activity at 1 µM (340 wild-type kinases [9]; 1 µM 2015, read-out: CDK2/CycE1 residual activity): 109%
- remaining activity at 0.2 µM (340 wild-type kinases [9]; CDK2/CycA2, 0.2 µM, read-out: residual activity): 92.5%
- remaining activity at 1 µM (340 wild-type kinases [9]; CDK2/CycA2, 1 µM, read-out: residual activity): 87.2%
- remaining activity at 0.2 µM (340 wild-type kinases [9]; CDK2/CycD1, 0.2 µM, read-out: residual activity): 90.3%
- remaining activity at 1 µM (340 wild-type kinases [9]; CDK2/CycD1, 1 µM, read-out: residual activity): 96.5%
- remaining activity at 0.2 µM (340 wild-type kinases [9]; CDK2/CycE1, 0.2 µM, read-out: residual activity): 121%
- remaining activity at 1 µM (340 wild-type kinases [9]; CDK2/CycE1, 1 µM, read-out: residual activity): 109%
- remaining activity at 0.2 µM (340 wild-type kinases [10]; 0.2 µM 2015, read-out: PKCeta residual activity): 80.3%
- remaining activity at 1 µM (340 wild-type kinases [10]; 1 µM 2015, read-out: PKCeta residual activity): 90.1%
- remaining activity at 0.2 µM (340 wild-type kinases [10]; PKCeta, 0.2 µM, read-out: residual activity): 80.3%
- remaining activity at 1 µM (340 wild-type kinases [10]; PKCeta, 1 µM, read-out: residual activity): 90.1%
- remaining activity at 0.2 µM (340 wild-type kinases [11]; 0.2 µM 2015, read-out: TRKA residual activity): 109%
- remaining activity at 1 µM (340 wild-type kinases [11]; 1 µM 2015, read-out: TRKA residual activity): 96.5%
- remaining activity at 0.2 µM (340 wild-type kinases [11]; TRKA, 0.2 µM, read-out: residual activity): 109%
- remaining activity at 1 µM (340 wild-type kinases [11]; TRKA, 1 µM, read-out: residual activity): 96.5%
- remaining activity at 0.2 µM (340 wild-type kinases [12]; 0.2 µM 2015, read-out: TRKB residual activity): 99.7%
- remaining activity at 1 µM (340 wild-type kinases [12]; 1 µM 2015, read-out: TRKB residual activity): 91.3%
- remaining activity at 0.2 µM (340 wild-type kinases [12]; TRKB, 0.2 µM, read-out: residual activity): 99.7%
- remaining activity at 1 µM (340 wild-type kinases [12]; TRKB, 1 µM, read-out: residual activity): 91.3%
